The term IC50 denotes the concentration needed to halve the response being measured.

For 13 compounds, IC50 results are on record in patent US20110190336A1, “AZABENZIMIDAZOLONES” (CARA THERAPEUTICS, INC., priority 2008, published 2011).

This experiment deals with T1, human DP2 receptor (Homo sapiens, UniProt Q9Y5Y4).
T1 construct: expressed in transfected cells; host or cells: CHO-K1 FLP-In (Invitrogen, catalog no. R758-07), stably transfected
T1 sequence (Q9Y5Y4 1-395): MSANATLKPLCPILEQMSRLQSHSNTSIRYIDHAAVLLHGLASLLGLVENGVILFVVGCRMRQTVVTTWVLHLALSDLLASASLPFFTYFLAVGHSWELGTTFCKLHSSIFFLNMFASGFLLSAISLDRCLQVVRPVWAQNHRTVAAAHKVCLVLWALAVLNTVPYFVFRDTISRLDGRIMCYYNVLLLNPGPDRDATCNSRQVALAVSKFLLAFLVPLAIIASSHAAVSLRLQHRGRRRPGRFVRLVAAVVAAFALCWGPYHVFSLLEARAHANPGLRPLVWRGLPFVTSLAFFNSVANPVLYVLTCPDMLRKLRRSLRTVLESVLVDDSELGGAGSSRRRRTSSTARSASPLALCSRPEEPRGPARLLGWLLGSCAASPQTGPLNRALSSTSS
Kind of experiment: Prostaglandin D2 binding inhibition assay (scintillation proximity assay, 3H PGD2, membranes of transfected CHO cells). The settings on record: SPA, 5.5 nM 3H PGD2, CHO-K1 FLP-In human DP2 membranes; upper limit determinable 30 μM; read-out: IC50 ranges for inhibition of PGD2 binding to human DP2. The protocol: The ability of compounds to inhibit binding of prostaglandin D2 (PGD2) to the human DP2 receptor was measured using a scintillation proximity assay (SPA). Chinese Hamster Ovary FLP-In cell lines (CHO-K1 FLP-In, Invitrogen, catalog no. R758-07) were stably transfected with the human DP2 gene (Genebank: AY507142). Cell lines were grown in suspension in EX-CELL 302 CHO Serum-free medium (Sigma, catalog no. 14324C) supplemented with 1% Fetal Bovine Serum (Invitrogen no. 10099-141), 2 mM L-glutamine (Invitrogen, catalog no. 25030-081) and 0.5 mg/ml Hygromycin B (Invitrogen, catalog no. 10687-010). Cells were collected by centrifugation in a Beckman Coulter Allegra X-12R centrifuge at 150×g for 5 minutes at room temperature.
Membranes from transfected cells were isolated for binding assays. Cell pellets containing approximately 2×10^9 cells were resuspended in 35 ml of cold membrane homogenization buffer (10 mM Tris (Sigma, catalog no. T2663), 1 mM EDTA (Fluka BioChemika no. 03690), and 70 μl of protease inhibitor cocktail (Sigma, catalog no. P8340)). Cells were homogenized with 30 strokes of a dounce homogenizer (Kontes, catalog no. 885303-0040), and the solution centrifuged at 200×g for 10 minutes. The supernatant was transferred to a 50 ml Oakridge tube (Beckman, catalog no. 357000) and centrifuged in a Beckman Coulter Avanti J-26×PI centrifuge with a JA30.50 rotor at 81,000×g for 1 hour at 15° C. The pellet was resuspended in membrane storage buffer (50 mM Tris (Sigma, catalog no. T2663), 2.5 mM EDTA (Fluka BioChemika no. 03690), 5 mM magnesium chloride (Sigma, catalog no. M1028), 100 mg/ml sucrose (Sigma, catalog no. 50389) and a 1:500 dilution of protease inhibitor cocktail (Sigma, catalog no. P8340)) and the total protein was quantitated using a BCA protein measurement kit (Pierce, catalog no. 23225). Aliquots were frozen at −80° C. until used. Compounds were tested for their ability to inhibit PGD2 binding to the purified membranes. 5 μg of the purified membranes, 0.25 mg of wheat germ agglutinin PVT SPA beads (GE Healthcare, catalog no. RPNQ0060) and 5.5 nM of ^3H PGD2 (PerkinElmer, catalog no. NET-616) were mixed in assay buffer ((50 mM Tris (Sigma, catalog no. T2663), 10 mM magnesium chloride (Sigma, catalog no. M1028), 100 mM sodium chloride (Sigma, catalog no. S6546) and 0.1% bovine serum albumin (Sigma, catalog no. A2153)). Using a Multidrop bulk dispenser, 75 μl of the assay mixture was dispensed in Optiplates (PerkinElmer, catalog no. 6007299) containing the compounds to be tested. After a 60 minute incubation period at room temperature, the plates were read on a PerkinElmer Topcount NXT HTS, and individual wells were quantitated as counts per minute (CPM). Data were expressed as a percent of the difference between the maximum and minimum responses. IC50 values (the concentration of compound producing 50% of the maximal response) were determined using a two-parameter non-linear regression algorithm analyzed using CambridgeSoft Bioassay software. Table 2 gives the range of IC50 values for claimed compounds in the binding assay.
With `Cc1ccc(S(=O)(=O)N2CCC(n3c(=O)n(CC(=O)O)c4cccnc43)CC2)s1` [Compound 53, 2-(3-(1-(5-methylthiophen-2-ylsulfonyl)piperidin-4-yl)-2-oxo-2,3-dihydro-1H-imidazo[4,5-b]pyridin-1-yl)acetic acid], the IC50 was in the range of 1 to 10 µM.
Then `Cc1noc(C)c1S(=O)(=O)N1CCC(n2c(=O)n(CC(=O)O)c3cccnc32)CC1` [Compound 54, 2-(3-(1-(3,5-dimethylisoxazol-4-ylsulfonyl)piperidin-4-yl)-2-oxo-2,3-dihydro-1H-imidazo[4,5-b]pyridin-1-yl)acetic acid], with over 30 µM; and `O=C(O)Cn1c(=O)n(C2CCN(S(=O)(=O)c3ccc(F)cc3)CC2)c2ncccc21` [Compound 55, 2-(3-(1-(4-fluorophenylsulfonyl)piperidin-4-yl)-2-oxo-2,3-dihydro-1H-imidazo[4,5-b]pyridin-1-yl)acetic acid], with 1 to 10 µM.
Then `Cc1ccc(CS(=O)(=O)N2CCC(n3c(=O)n(CC(=O)O)c4cccnc43)CC2)cc1` [Compound 56, 2-(3-(1-(4-methylbenzylsulfonyl)piperidin-4-yl)-2-oxo-2,3-dihydro-1H-imidazo[4,5-b]pyridin-1-yl)acetic acid], with 10 to 30 µM; and `O=C(O)Cn1c(=O)n(C2CCN(S(=O)(=O)c3ccc(Cl)cc3)CC2)c2ncccc21` [Compound 57, 2-(3-(1-(4-chlorophenylsulfonyl)piperidin-4-yl)-2-oxo-2,3-dihydro-1H-imidazo[4,5-b]pyridin-1-yl)acetic acid], with 1 to 10 µM.
The result for `O=C(O)Cn1c(=O)n(C2CCN(S(=O)(=O)c3ccccc3Cl)CC2)c2ncccc21` [Compound 58, 2-(3-(1-(2-chlorophenylsulfonyl)piperidin-4-yl)-2-oxo-2,3-dihydro-1H-imidazo[4,5-b]pyridin-1-yl)acetic acid] reads under 1 µM; that for `O=C(O)Cn1c(=O)n(C2CCN(S(=O)(=O)c3ccc4ccccc4c3)CC2)c2ncccc21` [Compound 59, 2-(3-(1-(naphthalen-2-ylsulfonyl)piperidin-4-yl)-2-oxo-2,3-dihydro-1H-imidazo[4,5-b]pyridin-1-yl)acetic acid], 1 to 10 µM; that for `O=C(O)Cn1c(=O)n(C2CCN(S(=O)(=O)c3ccsc3)CC2)c2ncccc21` [Compound 60, 2-(2-oxo-3-(1-(thiophen-3-ylsulfonyl)piperidin-4-yl)-2,3-dihydro-1H-imidazo[4,5-b]pyridin-1-yl)acetic acid], 1 to 10 µM.
With `N#Cc1ccc(S(=O)(=O)N2CCC(n3c(=O)n(CC(=O)O)c4cccnc43)CC2)cc1` [Compound 61, 2-(3-(1-(4-cyanophenylsulfonyl)piperidin-4-yl)-2-oxo-2,3-dihydro-1H-imidazo[4,5-b]pyridin-1-yl)acetic acid], the IC50 was in the range of 1 to 10 µM.
As for `Cc1cccc(CS(=O)(=O)N2CCC(n3c(=O)n(CC(=O)O)c4cccnc43)CC2)c1` [Compound 62, 2-(3-(1-(3-methylbenzylsulfonyl)piperidin-4-yl)-2-oxo-2,3-dihydro-1H-imidazo[4,5-b]pyridin-1-yl)acetic acid], the IC50 lay in the range of 1 to 10 µM.
The result for `O=C(O)Cn1c(=O)n(C2CCN(S(=O)(=O)Cc3ccc(F)cc3)CC2)c2ncccc21` [Compound 64, 2-(3-(1-(4-fluorobenzylsulfonyl)piperidin-4-yl)-2-oxo-2,3-dihydro-1H-imidazo[4,5-b]pyridin-1-yl)acetic acid] reads under 1 µM; that for `CC(C)(C)c1ccc(S(=O)(=O)N2CCC(n3c(=O)n(CC(=O)O)c4cccnc43)CC2)cc1` [Compound 65, 2-(3-(1-(4-tert-butylphenylsulfonyl)piperidin-4-yl)-2-oxo-2,3-dihydro-1H-imidazo[4,5-b]pyridin-1-yl)acetic acid], 1 to 10 µM.
The result for `CS(=O)(=O)c1cccc(S(=O)(=O)N2CCC(n3c(=O)n(CC(=O)O)c4cccnc43)CC2)c1` [Compound 66, 2-(3-(1-(3-(methylsulfonyl)phenyl-sulfonyl)piperidin-4-yl)-2-oxo-2,3-dihydro-1H-imidazo[4,5-b]pyridin-1-yl)acetic acid] reads 1 to 10 µM.
